Data taken from article PMC6332312, “N-Monosubstituted Methoxy-oligo(ethylene glycol) Carbamate Ester Prodrugs of Resveratrol” (Molecules, 2015).

Columns and labels:
[1] = Stability (hydrolysis) in rodent whole blood, 37 °C; format: in vitro ADME; conditions: rat blood; for kIII (hydrolysis rate constant, tri- to disubstituted): pseudo-first order fit; for half-life at 5 µM: whole blood, 5 µM compound
Procedure: (§1) Kinetic analysis of the data was performed by assuming that hydrolysis to resveratrol occurred via consecutive losses of the three protecting groups in pseudo-first order processes and by considering each pair of isomeric intermediates (potentially) resulting from the first and second hydrolysis steps as a single species, i.e. the two monosubstituted and the two disubstituted intermediates were handled as species I and II, respectively (Scheme 3).
Rats were anesthetized and blood was withdrawn from the jugular vein, heparinised and transferred into tubes containing EDTA. Blood samples (1 mL) were spiked with 5 µM compound (dilution from a 5 mM stock solution in DMSO), and incubated at 37 °C for 4 h (the maximum period allowed by blood stability). Aliquots were taken after 10 min, 30 min, 1 h, 2 h and 4 h and treated as described below (blood sample treatment and analysis). Cleared blood samples were finally subjected to HPLC-UV analysis.
(§2) Before starting the treatment, 4,4′-dihydroxybiphenyl was added as internal standard to a carefully-measured blood volume (25 µM final concentration). Blood was then stabilized with a freshly-prepared 10 mM solution of ascorbic acid (0.1 vol) and acidified with 0.6 M acetic acid (0.1 vol); after mixing, an excess of acetone (4 vol) was added, followed by sonication (2 min) and centrifugation (12,000× g, 7 min, 4 °C). The supernatant was finally collected and stored at −20 °C. Before analysis, acetone was allowed to evaporate at room temperature using a Univapo 150H (UniEquip, Martinsried, Germany) vacuum concentrator centrifuge, and up to 40 μL of CH3CN were added to precipitate residual proteins. After centrifugation (12,000× g, 5 min, 4 °C), cleared samples were directly subjected to HPLC-UV analysis. Metabolites and hydrolysis products were identified by comparison of chromatographic retention time with true samples.

[2] = Pharmacokinetic study after single intragastric bolus to rats; format: in vivo, male Wistar rats; conditions: rat, single intragastric bolus 88 µmol/kg; for Tmax: male, Wistar, whole blood, po, 88 umol/kg, read-out: time of peak blood level after administration (converted); for peak blood concentration of prodrug (absorption): N = 3
Procedure: All the N-monosubstituted methoxy-oligo(ethylene glycol) carbamate ester prodrugs were tested for their in vivo absorption and metabolism. Pharmacokinetic studies were performed with rats, and each compound was administered as a single intragastric bolus, in an equimolar dose/kg body weight (88 µmol/kg). Blood samples were taken at different time points, treated as described in the Materials and Methods section and analyzed.
as §2
Derivatives 2–4 were administered to overnight-fasted male Wistar rats from the facility of the Department of Biomedical Sciences, University of Padova, as a single intragastric dose (88 µmol/kg, dissolved in 250 µL DMSO) delivered with a commercial stainless steel feeding tube (www.2biol.com) to have a precise starting time. Wistar rats are commonly used for such studies (e.g., [60]). Relatively young adults (3–5 months) were used in order to have a fully developed metabolism as well as a body weight (300–400 g) which would limit the amount of synthetic compound to be used.
Blood samples were obtained by the tail bleeding technique: before drug administration, rats were anesthetized with isoflurane and the tip of the tail was cut off; blood samples (80–100 µL each) were then taken from the tail tip at different time points after drug administration. Blood was collected in heparinized tubes, kept in ice and treated as described above within 10 min. All experiments involving animals were performed with the permission and supervision of the University of Padova Ethical Committee for Experimentation on Animals (CEASA) and Central Veterinary Service, in compliance with Italian Law DL 116/92, embodying EU Directive 86/609. Significance in comparisons was assessed using the Wilcoxon Rank Test.

[3] = Hydrolysis in PBS 0.1 M at pH 6.8 (intestinal pH), 37 °C; format: physicochemical; conditions: pH 6.8, 37 °C; for half-life at 5 µM: 0.1 M PBS buffer, 5 µM compound; for kII (hydrolysis rate constant, di- to monosubstituted) / kIII (hydrolysis rate constant, tri- to disubstituted): pseudo-first order fit
Procedure: as §1
As hydrolysis proceeds resveratrol will eventually form with the kinetics dictated by the constants, up to 100% conversion. The fit of the experimental data was obtained using a set of equations analogous to those utilized by Kozerski et al. and in our previous work.
The chemical stability of all new compounds was tested in aqueous media imitating gastric (0.1 N HCl, NormaFix) and intestinal (0.1 M PBS buffer, at pH 6.8) pH conditions. A 5 µM solution of the compound was prepared from a 5 mM stock solution in DMSO, and incubated at 37 °C for 24 h; samples withdrawn at different times were analyzed by HPLC-UV. Hydrolysis products were identified by HPLC/ESI-MS analysis of selected samples. Non-linear curve fitting was performed using Origin 8.0 data analysis software, using the equations described in [61, 62].

In the case of COCCOCCOCCOCCOCCOCCNC(=O)Oc1ccc(/C=C/c2cc(OC(=O)NCCOCCOCCOCCOCCOCCOC)cc(OC(=O)NCCOCCOCCOCCOCCOCCOC)c2)cc1 [Compound 4, (E)-5-(4-(2,5,8,11,14,17-Hexaoxanonadecan-19-ylcarbamate)styryl)-1,3-phenylene bis(2,5,8,11,14,17-hexaoxanonadecan-19-ylcarbamate)], the “kIII (hydrolysis rate constant, tri- to disubstituted)” value (“kIII” below) [1] is reported as 1.25 ± 0.08 h⁻¹, the half-life at 5 µM [1] is reported as 30 min and the Tmax [2] is reported as 10 min. The “appearance of resveratrol, derivatives or metabolites (stilbene derivatives) in blood samples” value (shortened to “appearance of resveratrol”) [2] was “measurable levels”, the “peak blood concentration of prodrug (absorption)” value [2] was 0.1 µM and the half-life at 5 µM [3] was 270 min. For the same compound, the “kII (hydrolysis rate constant, di- to monosubstituted)” value [3] was 0.051 ± 0.001 h⁻¹ and the “kIII” value [3] was 0.158 ± 0.002 h⁻¹.
For COCCOCCOCCNC(=O)Oc1ccc(/C=C/c2cc(OC(=O)NCCOCCOCCOC)cc(OC(=O)NCCOCCOCCOC)c2)cc1 [Compound 2, (E)-5-(4-(2-(2-(2-Methoxyethoxy)ethoxy)ethyl)carbamate)-1,3-phenylene bis((2-(2-(2-methoxyethoxy)ethoxy)ethyl)carbamate)], the “kIII” value [1] was 1.47 ± 0.08 h⁻¹, the half-life at 5 µM [1] was 30 min and the “appearance of resveratrol” value [2] was “did not result in the appearance of detectable amounts”. The half-life at 5 µM [3] was 360 min, the “kII (hydrolysis rate constant, di- to monosubstituted)” value [3] was 0.030 ± 0.002 h⁻¹ and the “kIII” value [3] was 0.104 ± 0.002 h⁻¹.
For COCCOCCOCCOCCNC(=O)Oc1ccc(/C=C/c2cc(OC(=O)NCCOCCOCCOCCOC)cc(OC(=O)NCCOCCOCCOCCOC)c2)cc1 [Compound 3, (E)-5-(4-(5,8,11-Tetraoxatridecan-13-ylcarbamate)styryl)-1,3-phenylene bis(2,5,8,11-tetraoxatridecan-13-ylcarbamate)], the “kIII” value [1] was 2.0 ± 0.2 h⁻¹, the half-life at 5 µM [1] was 18 min and the Tmax [2] was 10 min. For the same compound, the “appearance of resveratrol” value [2] was “measurable levels”, the “peak blood concentration of prodrug (absorption)” value [2] was 0.3 µM and the half-life at 5 µM [3] was 210 min. The “kII (hydrolysis rate constant, di- to monosubstituted)” value [3] was 0.042 ± 0.005 h⁻¹ and the “kIII” value [3] was 0.134 ± 0.007 h⁻¹.
